According to PubChem BioAssay (NCI):
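Assay format: 96-well plates, 48-hour exposure. TGI is the concentration that stops growth completely.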

Key:
Experiment in all cases: inhibition of tumour cell growth, NCI panel, 48 h
[1] = system: 786-0 renal
[2] = system: A498 renal
[3] = system: A549 NSCLC
[4] = system: ACHN renal
[5] = system: CAKI-1 renal
[6] = system: CCRF-CEM leukemia
[7] = system: COLO 205 colon
[8] = system: DLD-1 colon
[9] = system: DMS 114 small cell lung
[10] = system: EKVX NSCLC
[11] = system: HCC-2998 colon
[12] = system: HCT-116 colon
[13] = system: HCT-15 colon
[14] = system: HL-60(TB) leukemia
[15] = system: HOP-18 NSCLC
[16] = system: HOP-62 NSCLC
[17] = system: HOP-92 NSCLC
[18] = system: HT29 colon
[19] = system: IGROV1 ovarian
[20] = system: K-562 leukemia
[21] = system: KM12 colon
[22] = system: LOX IMVI melanoma
[23] = system: LXFL 529 NSCLC
[24] = system: M14 melanoma
[25] = system: MALME-3M melanoma
[26] = system: MOLT-4 leukemia
[27] = system: NCI-H226 lung
[28] = system: NCI-H23 lung
[29] = system: NCI-H460 lung
[30] = system: NCI-H522 lung
[31] = system: OVCAR-4 ovarian
[32] = system: OVCAR-5 ovarian
[33] = system: OVCAR-8 ovarian
[34] = system: RPMI-8226 leukemia
[35] = system: RXF-631 renal
[36] = system: SF-268 CNS
[37] = system: SF-295 CNS
[38] = system: SF-539 CNS
[39] = system: SK-MEL-2 melanoma
[40] = system: SK-MEL-28 melanoma
[41] = system: SK-MEL-5 melanoma
[42] = system: SK-OV-3 ovarian
[43] = system: SN12C renal
[44] = system: SNB-75 CNS
[45] = system: SNB-78 CNS
[46] = system: SR leukemia
[47] = system: SW-620 colon
[48] = system: TK-10 renal
[49] = system: U251 CNS
[50] = system: UACC-257 melanoma
[51] = system: UACC-62 melanoma
[52] = system: UO-31 renal
[53] = system: XF 498 CNS
[54] = system: DMS 273 small cell lung
[55] = system: KM20L2 colon
[56] = system: M19-MEL melanoma
[57] = system: OVCAR-3 ovarian
[58] = system: RXF 393 renal
[59] = system: SNB-19 CNS

CCOC(=O)/C(=C/c1ccc(C(F)(F)F)cc1)N(CC)CC
TGI [1]: > 100 µM
TGI [2]: > 100 µM
TGI [3]: > 100 µM
TGI [4]: > 100 µM
TGI [5]: > 100 µM
TGI [6]: > 100 µM
TGI [7]: > 100 µM
TGI [8]: > 100 µM
TGI [9]: > 100 µM
TGI [10]: > 100 µM
TGI [11]: > 100 µM
TGI [12]: > 100 µM
TGI [13]: > 100 µM
TGI [14]: > 100 µM
TGI [15]: > 100 µM
TGI [16]: > 100 µM
TGI [17]: > 100 µM
TGI [18]: > 100 µM
TGI [19]: > 100 µM
TGI [20]: > 100 µM
TGI [21]: > 100 µM
TGI [22]: > 100 µM
TGI [23]: > 100 µM
TGI [24]: > 100 µM
TGI [25]: > 100 µM
TGI [26]: > 100 µM
TGI [27]: > 100 µM
TGI [28]: > 100 µM
TGI [29]: > 100 µM
TGI [30]: > 100 µM
TGI [31]: > 100 µM
TGI [32]: > 100 µM
TGI [33]: > 100 µM
TGI [34]: > 100 µM
TGI [35]: > 100 µM
TGI [36]: > 100 µM
TGI [37]: > 100 µM
TGI [38]: > 100 µM
TGI [39]: > 100 µM
TGI [40]: > 100 µM
TGI [41]: > 100 µM
TGI [42]: > 100 µM
TGI [43]: > 100 µM
TGI [44]: > 100 µM
TGI [45]: > 100 µM
TGI [46]: > 100 µM
TGI [47]: > 100 µM
TGI [48]: > 100 µM
TGI [49]: > 100 µM
TGI [50]: > 100 µM
TGI [51]: > 100 µM
TGI [52]: > 100 µM
TGI [53]: > 100 µM

O=S(=O)(SCCCCSS(=O)(=O)c1ccc(Cl)cc1)c1ccc(Cl)cc1
TGI [1]: 21.4 µM
TGI [2]: 32.9 µM
TGI [3]: 37.2 µM
TGI [4]: 31 µM
TGI [5]: 27.8 µM
TGI [6]: 4.5 µM
TGI [7]: 28.2 µM
TGI [8]: 27.5 µM
TGI [9]: 20.7 µM
TGI [54]: 23.3 µM
TGI [11]: 34.1 µM
TGI [12]: 24.3 µM
TGI [13]: 27.4 µM
TGI [14]: 8.85 µM
TGI [15]: 32.9 µM
TGI [16]: 36.6 µM
TGI [17]: 21 µM
TGI [18]: 32.1 µM
TGI [19]: 19.4 µM
TGI [20]: 48.8 µM
TGI [21]: 22.8 µM
TGI [55]: 33.8 µM
TGI [22]: 11.3 µM
TGI [23]: 24.7 µM
TGI [24]: 27.7 µM
TGI [56]: 30.8 µM
TGI [25]: 32.4 µM
TGI [26]: 10.1 µM
TGI [28]: 22.9 µM
TGI [29]: 29.5 µM
TGI [30]: 17 µM
TGI [57]: 28 µM
TGI [31]: 33.5 µM
TGI [32]: 30.4 µM
TGI [33]: 25.5 µM
TGI [34]: 28.5 µM
TGI [58]: 34.2 µM
TGI [35]: 21.5 µM
TGI [36]: 29.1 µM
TGI [37]: 15.2 µM
TGI [38]: 25 µM
TGI [39]: 33.2 µM
TGI [40]: 34.3 µM
TGI [41]: 30.5 µM
TGI [42]: 30.1 µM
TGI [43]: 22.5 µM
TGI [59]: 28 µM
TGI [44]: 33.3 µM
TGI [45]: 56.4 µM
TGI [47]: 23 µM
TGI [48]: 47.7 µM
TGI [49]: 21 µM
TGI [50]: 37.2 µM
TGI [51]: 28.9 µM
TGI [52]: 21.1 µM

O=c1oc2c3ccc4ccccc4c3n(CCCN3CCCCC3)c2c2ccccc12
TGI [1]: 37.2 µM
TGI [3]: > 100 µM
TGI [4]: > 100 µM
TGI [5]: > 100 µM
TGI [6]: > 100 µM
TGI [7]: > 100 µM
TGI [8]: > 100 µM
TGI [9]: > 100 µM
TGI [10]: > 100 µM
TGI [11]: > 100 µM
TGI [12]: > 100 µM
TGI [13]: > 100 µM
TGI [14]: 42.9 µM
TGI [15]: > 100 µM
TGI [16]: > 100 µM
TGI [17]: > 100 µM
TGI [18]: > 100 µM
TGI [19]: > 100 µM
TGI [20]: 63.9 µM
TGI [21]: > 100 µM
TGI [55]: > 100 µM
TGI [22]: > 100 µM
TGI [23]: > 100 µM
TGI [24]: 24.2 µM
TGI [56]: > 100 µM
TGI [25]: 41 µM
TGI [26]: > 100 µM
TGI [29]: > 100 µM
TGI [30]: > 100 µM
TGI [57]: > 100 µM
TGI [31]: > 100 µM
TGI [32]: > 100 µM
TGI [33]: > 100 µM
TGI [34]: > 100 µM
TGI [35]: > 100 µM
TGI [36]: > 100 µM
TGI [37]: > 100 µM
TGI [38]: 40.8 µM
TGI [39]: > 100 µM
TGI [40]: 50.3 µM
TGI [42]: > 100 µM
TGI [59]: > 100 µM
TGI [44]: > 100 µM
TGI [46]: > 100 µM
TGI [47]: > 100 µM
TGI [48]: > 100 µM
TGI [50]: > 100 µM
TGI [51]: > 100 µM
TGI [52]: > 100 µM
TGI [53]: > 100 µM
